We go through 13 molecules from patent US20250376468A1, “PYRAZOLO[1,5-a]PYRIDINE DERIVATIVES FOR TREATING TRPM3-MEDIATED DISORDERS” (Katholieke Universiteit Leuven, priority 2022, published 2025).

The target in the assay is T1, mouse TRPM3α2 (mTRPM3) ion channel (Mus musculus, UniProt J9SQF3).
T1 construct: expressed in transfected cells; host or cells: flip-in HEK293 (Flp-In HEK293) overexpressing mTRPM3alpha2
Briefly: TRPM3 ion channel driven Ca2+ uptake, Fluo-4 AM assay, stimulated with pregnenolone sulfate (50 μM). The class given is cell-based. To be noted: TRPM3 overexpressing flip-in HEK293 cells, PS 50 μM, 2.4 mM Ca2+. The procedure:
In order to monitor the inhibition of the mouse TRPM3α2 (mTRPM3) ion channel by the compounds of the invention, a cellular system making use of an mTRPM3alpha2 or hTRPM3 overexpressing cell line (flip-in HEK293) was used. The TRPM3 channel was stimulated/opened with Pregnenolone sulfate (PS) (50 μM) which results in Ca^2+ influx.
For mTRPM3, the intracellular Ca^2+ was measured with a Calcium responsive dye, Fluor-4 AM ester (Invitrogen). Cells were cultured until a confluence of 80-90%, washed with Versene (Invitrogen) and detached from the surface by a short incubation with 0.05% Trypsin (Invitrogen). The […] was stopped by the addition of complete cell culture medium (DMEM, glutamax, 10% FCS, NEAA, Pen-Strep). Cells were collected and resuspended in Krebs buffer without Calcium at RT.
Prior the cell seeding (±2000 cells/well into a black, 384 well plate (Greiner)) the diluted compound was added in the assay plate, together with the PS dissolved in Krebs buffer containing Calcium. […] Directly after cell addition the plates were read on an Envision fluorescence reader (Perkin Elmer) by an Excitation of 485 nm and emission at 535 nm.
Channel inhibition was calculated compared to a non-PS stimulated control versus a condition stimulated with PS (50 μM) with vehicle. The ability of the compounds of the invention to inhibit this activity was determined as: Percentage inhibition=[1−((RFU determined for sample with test compound present−RFU determined for sample with positive control inhibitor) divided by (RFU determined in the presence of vehicle−RFU determined for sample with positive control inhibitor))]*100.
The activities of the Example compounds cpd 001-091 tested are depicted in the table below. All tested compounds show an activity in the Fluo-4 AM assay. The activity ranges A, B and C refer to IC50 values in the Fluo-4 AM assay as follows: “A”: IC50<1 μM; “B”: 1 μM≤IC50≤20 μM and “C”: IC50>20 μM.

As a reminder, the IC50 is the midpoint of a concentration-inhibition curve. A higher IC50 goes with weaker potency in that assay.

T1 sequence (J9SQF3 1-1709 isoform J9SQF3-12): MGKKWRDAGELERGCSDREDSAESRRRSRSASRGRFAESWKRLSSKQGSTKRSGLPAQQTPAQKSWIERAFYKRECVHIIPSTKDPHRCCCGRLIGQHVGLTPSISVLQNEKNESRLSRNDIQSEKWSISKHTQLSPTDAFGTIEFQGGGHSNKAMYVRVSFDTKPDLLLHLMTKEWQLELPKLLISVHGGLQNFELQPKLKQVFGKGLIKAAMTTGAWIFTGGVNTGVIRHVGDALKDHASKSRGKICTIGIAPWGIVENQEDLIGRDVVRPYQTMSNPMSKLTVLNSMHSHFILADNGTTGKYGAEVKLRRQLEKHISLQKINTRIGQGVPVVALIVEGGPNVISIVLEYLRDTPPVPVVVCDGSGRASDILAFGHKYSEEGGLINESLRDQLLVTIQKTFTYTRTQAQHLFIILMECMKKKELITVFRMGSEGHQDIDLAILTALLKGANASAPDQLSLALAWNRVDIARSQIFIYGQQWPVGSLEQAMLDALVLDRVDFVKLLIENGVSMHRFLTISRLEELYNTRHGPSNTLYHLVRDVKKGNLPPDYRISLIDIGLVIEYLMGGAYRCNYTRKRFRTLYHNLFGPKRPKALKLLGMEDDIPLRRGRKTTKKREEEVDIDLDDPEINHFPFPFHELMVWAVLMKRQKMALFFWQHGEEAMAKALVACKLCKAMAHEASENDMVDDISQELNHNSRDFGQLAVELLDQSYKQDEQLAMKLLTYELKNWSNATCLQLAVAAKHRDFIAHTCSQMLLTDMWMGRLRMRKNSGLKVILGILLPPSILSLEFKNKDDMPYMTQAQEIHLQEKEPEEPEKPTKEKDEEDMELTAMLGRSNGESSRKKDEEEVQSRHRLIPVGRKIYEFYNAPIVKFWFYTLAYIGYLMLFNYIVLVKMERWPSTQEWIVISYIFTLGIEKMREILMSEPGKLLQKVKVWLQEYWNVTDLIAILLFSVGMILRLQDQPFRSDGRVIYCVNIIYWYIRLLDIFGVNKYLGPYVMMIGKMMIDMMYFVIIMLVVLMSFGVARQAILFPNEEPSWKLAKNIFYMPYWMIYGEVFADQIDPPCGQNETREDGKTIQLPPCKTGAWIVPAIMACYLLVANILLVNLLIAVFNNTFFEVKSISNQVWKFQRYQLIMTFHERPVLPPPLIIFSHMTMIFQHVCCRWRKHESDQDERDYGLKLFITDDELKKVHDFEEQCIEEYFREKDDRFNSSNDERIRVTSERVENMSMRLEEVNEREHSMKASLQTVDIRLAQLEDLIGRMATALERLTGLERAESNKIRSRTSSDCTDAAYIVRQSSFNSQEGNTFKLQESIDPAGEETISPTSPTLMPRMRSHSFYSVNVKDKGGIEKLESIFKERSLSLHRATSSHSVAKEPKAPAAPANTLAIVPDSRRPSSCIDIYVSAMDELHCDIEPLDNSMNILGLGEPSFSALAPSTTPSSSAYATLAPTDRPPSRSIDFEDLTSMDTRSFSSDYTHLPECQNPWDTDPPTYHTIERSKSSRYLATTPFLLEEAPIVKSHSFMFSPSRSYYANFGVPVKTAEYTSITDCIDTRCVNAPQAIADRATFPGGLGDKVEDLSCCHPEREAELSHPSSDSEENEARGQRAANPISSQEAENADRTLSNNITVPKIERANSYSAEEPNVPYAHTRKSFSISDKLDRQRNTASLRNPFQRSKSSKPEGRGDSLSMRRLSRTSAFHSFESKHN

`Cc1nn2ccc(OCc3ccccc3F)cc2c1C(=O)NC(C)(CO)C(N)=O` (single isomer, unassigned) [Cpd 020 - En1, 2-({5-[(2-fluorophenyl)methoxy]-2-methylpyrazolo[1,5-a]pyridin-3-yl}formamido)-3-hydroxy-2-methylpropanamide] returned a concentration for half-maximal inhibition (IC50) below 1 µM.
In the case of `Cc1nn2ccc(OCc3ccccc3F)cc2c1C(=O)NCC(F)F` [Cpd 006, N-(2,2-difluoroethyl)-5-[(2-fluorophenyl)methoxy]-2-methylpyrazolo[1,5-a]pyridine-3-carboxamide], the IC50 fell in the range of 1 to 20 µM.
Take `Cc1nn2ccc(OCc3ccccn3)cc2c1C(=O)NC1(CO)COC(C)(C)OC1` [Cpd 057, N-[5-(hydroxymethyl)-2,2-dimethyl-1,3-dioxan-5-yl]-2-methyl-5-[(pyridin-2-yl)methoxy]pyrazolo[1,5-a]pyridine-3-carboxamide]: the IC50 was above 20 µM.
As to `Cc1nn2ccc(OCc3ccccc3Cl)cc2c1C(=O)NC(C)(CO)CO` [Cpd 014, 5-[(2-chlorophenyl)methoxy]-N-(1,3-dihydroxy-2-methylpropan-2-yl)-2-methylpyrazolo[1,5-a]pyridine-3-carboxamide], the concentration for half-maximal inhibition (IC50) is below 1 µM.
As for `CCC(CO)(NC(=O)c1c(C)nn2ccc(OCc3ccccc3F)cc12)C(N)=O` (stereo not shown) [Cpd 001, 2-({5-[(2-fluorophenyl)methoxy]-2-methylpyrazolo[1,5-a]pyridin-3-yl}formamido)-2-(hydroxymethyl)butanamide], the IC50 is below 1 µM.
Molecule `Cc1nn2ccc(OCc3ccccc3F)cc2c1C(=O)NCCNS(C)(=O)=O` [Cpd 005, 5-[(2-fluorophenyl)methoxy]-N-(2-methanesulfonamidoethyl)-2-methylpyrazolo[1,5-a]pyridine-3-carboxamide] displayed an IC50 of 1 to 20 µM.
`Cc1nn2ccc(OCc3ccccn3)cc2c1C(=O)NCC(F)(F)F` [Cpd 042, 2-methyl-5-[(pyridin-2-yl)methoxy]-N-(2,2,2-trifluoroethyl)pyrazolo[1,5-a]pyridine-3-carboxamide] yielded an IC50 above 20 µM.
`Cc1nn2ccc(OCc3ccccc3Cl)cc2c1C(=O)N[C@@H](CO)C(N)=O` [Cpd 012, (2S)-2-({5-[(2-chlorophenyl)methoxy]-2-methylpyrazolo[1,5-a]pyridin-3-yl}formamido)-3-hydroxypropanamide] returned an IC50 below 1 µM.
Regarding `Cc1nn2ccc(OCc3ccccn3)cc2c1C(=O)NCC(F)(F)c1ccccc1` [Cpd 046, N-(2,2-difluoro-2-phenylethyl)-2-methyl-5-[(pyridin-2-yl)methoxy]pyrazolo[1,5-a]pyridine-3-carboxamide], the IC50 was above 20 µM.
Molecule `Cc1nn2ccc(OCc3ccccc3Cl)cc2c1C(=O)NC(C)(CO)C(N)=O` (single isomer, unassigned) [Cpd 019 - En2, 2-({5-[(2-chlorophenyl)methoxy]-2-methylpyrazolo[1,5-a]pyridin-3-yl}formamido)-3-hydroxy-2-methylpropanamide] showed an IC50 of 1 to 20 µM.
With `Cc1nn2ccc(OCc3ccccn3)cc2c1C(=O)N[C@@]1(CO)C[C@H]1C(F)F` (relative stereo) [Cpd 072 - En1, N-[cis-2-(difluoromethyl)-1-(hydroxymethyl)cyclopropyl]-2-methyl-5-[(pyridin-2-yl)methoxy]pyrazolo[1,5-a]pyridine-3-carboxamide], the IC50 was 1 to 20 µM.
In turn, `Cc1nn2ccc(OCc3ccccn3)cc2c1C(=O)Nc1cc(C(F)(F)F)cnc1O` [Cpd 056, N-[2-hydroxy-5-(trifluoromethyl)pyridin-3-yl]-2-methyl-5-[(pyridin-2-yl)methoxy]pyrazolo[1,5-a]pyridine-3-carboxamide] returned an IC50 above 20 µM.
Then `Cc1nn2ccc(OCc3ccccc3F)cc2c1C(=O)NC(C)(CO)CO` [Cpd 002, N-(1,3-dihydroxy-2-methylpropan-2-yl)-5-[(2-fluorophenyl)methoxy]-2-methylpyrazolo[1,5-a]pyridine-3-carboxamide], with 1 to 20 µM.
